Key:
GSK-3β (AA 1-420) = target: T1, GSK-3β (AA 1-420) (Homo sapiens, UniProt P49841); assay: Ki determination for the inhibition of GSK-3 (coupled enzyme system); assay type: biochemical; conditions: 20 μM ATP, 300 μM peptide, 20 nM GSK-3β, 30° C.
T1 construct: GSK-3β (AA 1-420)
Description: Reactions were carried out in a solution containing 100 mM HEPES (pH 7.5), 10 mM MgCl2, 25 mM NaCl, 300 μM NADH, 1 mM DTT and 1.5% DMSO. Final substrate concentrations in the assay were 20 μM ATP (Sigma Chemicals, St Louis, Mo.) and 300 μM peptide (HSSPHQS(PO3H2)EDEEE, American Peptide, Sunnyvale, Calif.). Reactions were carried out at 30° C. and 20 nM GSK-3β. Final concentrations of the components of the coupled enzyme system were 2.5 mM phosphoenolpyruvate, 300 μM NADH, 30 μg/ml pyruvate kinase and 10 μg/ml lactate dehydrogenase.
An assay stock buffer solution was prepared containing all of the reagents listed above with the exception of ATP and the test compound of interest. […] The reaction was initiated by the addition of 20 μl of ATP (final concentration 20 μM). Rates of reaction were obtained using a Molecular Devices Spectramax plate reader (Sunnyvale, Calif.) over 10 min at 30° C. The Ki values were determined from the rate data as a function of inhibitor concentration.

CDK-2/Cyclin A = CDK-2/Cyclin A (Homo sapiens, UniProt P24941); assay: CDK-2 inhibition assay (coupled enzyme assay); assay type: biochemical; conditions: 25 nM CDK-2/Cyclin A, 30° C.
Description: Compounds were screened in the following manner for their ability to inhibit CDK-2 using a standard coupled enzyme assay (Fox et al (1998) Protein Sci 7, 2249).
To an assay stock buffer solution containing 0.1M HEPES 7.5, 10 mM MgCl2, 1 mM DTT, 25 mM NaCl, 2.5 mM phosphoenolpyruvate, […], 30 mg/ml pyruvate kinase, 10 mg/ml lactate dehydrogenase, 100 mM ATP, and 100 μM peptide ([…], American Peptide, Sunnyvale, Calif.) was added a DMSO solution of a compound of the present invention to a final concentration of 30 μM. The resulting mixture was incubated at 30° C. for 10 min.
The reaction was initiated by the addition of 10 μL of CDK-2/Cyclin A stock solution to give a final concentration of 25 nM in the assay. The rates of reaction were obtained by monitoring absorbance at 340 nm over a 5-minute read time at 30° C. using a BioRad Ultramark plate reader (Hercules, Calif.). The Ki values were determined from the rate data as a function of inhibitor concentration.

Aurora-2 = target: T2, Aurora-2 (Homo sapiens, UniProt O14965); assay: Ki determination for the inhibition of Aurora-2 (coupled enzyme assay); assay type: biochemical; conditions: 70 nM Aurora-2, peptide LRRASLG, 30° C.
T2 sequence (O14965 1-403): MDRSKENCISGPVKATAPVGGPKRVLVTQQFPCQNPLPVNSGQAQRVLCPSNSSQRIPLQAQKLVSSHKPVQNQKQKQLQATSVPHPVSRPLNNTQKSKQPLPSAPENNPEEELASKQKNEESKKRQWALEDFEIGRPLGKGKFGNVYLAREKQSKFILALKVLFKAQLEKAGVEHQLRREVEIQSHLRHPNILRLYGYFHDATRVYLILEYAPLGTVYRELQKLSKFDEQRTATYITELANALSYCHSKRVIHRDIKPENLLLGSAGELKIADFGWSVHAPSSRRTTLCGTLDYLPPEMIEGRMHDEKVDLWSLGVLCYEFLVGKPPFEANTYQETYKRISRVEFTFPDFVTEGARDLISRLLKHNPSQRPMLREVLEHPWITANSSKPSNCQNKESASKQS
Description: To an assay stock buffer solution containing 0.1M HEPES 7.5, 10 mM MgCl2, 1 mM DTT, 25 mM NaCl, 2.5 mM phosphoenolpyruvate, […], 30 mg/ml pyruvate kinase, 10 mg/ml lactate dehydrogenase, 40 mM ATP, and 800 μM peptide (LRRASLG, American Peptide, Sunnyvale, Calif.) was added a DMSO solution of a compound of the present invention to a final concentration of 30 μM. The resulting mixture was incubated at 30° C. for 10 min. The reaction was initiated by the addition of 10 μL of Aurora-2 stock solution to give a final concentration of 70 nM in the assay. […] The Ki values were determined from the rate data as a function of inhibitor concentration.

T1 sequence (P49841 whole entry, the tested form may be a part): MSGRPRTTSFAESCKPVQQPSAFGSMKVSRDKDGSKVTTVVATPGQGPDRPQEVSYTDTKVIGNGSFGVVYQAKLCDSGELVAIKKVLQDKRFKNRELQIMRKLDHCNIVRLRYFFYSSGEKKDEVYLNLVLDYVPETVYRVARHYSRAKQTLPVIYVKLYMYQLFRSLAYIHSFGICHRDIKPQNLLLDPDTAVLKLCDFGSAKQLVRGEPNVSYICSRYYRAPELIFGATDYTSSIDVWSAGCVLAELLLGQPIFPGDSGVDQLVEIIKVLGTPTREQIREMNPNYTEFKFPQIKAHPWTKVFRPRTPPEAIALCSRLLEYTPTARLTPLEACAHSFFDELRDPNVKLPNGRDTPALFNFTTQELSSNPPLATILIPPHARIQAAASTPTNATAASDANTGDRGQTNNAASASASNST

COc1ccc2c(Nc3cc(C)n[nH]3)nc(Sc3ccc(NC(C)=O)cc3)nc2c1 [IIa-40, [2-(4-Acetamidophenylsulfanyl)-7-methoxy-quinazolin-4-yl]-(5-methyl-2H-pyrazol-3-yl)-amine]
Ki (GSK-3β (AA 1-420)): 1 to 7 µM
Ki (CDK-2/Cyclin A): 1 to 20 µM
melting point: 291 to 293 °C
Ki (Aurora-2): < 0.1 µM

From patent US7625913B2, “Pyrazole compounds useful as protein kinase inhibitors” (Vertex Pharmaceuticals Incorporated, priority 2000, dated 2009)
